The results in this text go back to article PMC8838850, “Synthesis, Antimicrobial, Anti-Virulence and Anticancer Evaluation of New 5(4H)-Oxazolone-Based Sulfonamides” (Molecules, 2022).

Data set [1] has as its system Escherichia coli ATCC 10536. Kind of data set: MIC by agar dilution. It counts as cell-based. To be noted: ATCC10536, 37 °C, 20 h, read-out: Minimum inhibitory concentration (MIC). The protocol: (§1) The MICs of the synthesized compound were determined by agar dilution method according to the Clinical Laboratory and Standards Institute Guidelines (CLSI, 2015). Briefly, the tested strains were incubated overnight in tryptic soy broth (TSB) (Oxoid, United Kingdom) and then diluted in Muller–Hinton (MH) broth (Oxoid, United Kingdom) to turbidity approximating to the equivalent of 0.5 McFarland standard. The suspensions were further diluted with sterile saline (1:10) and standardized inoculums (approximately 10^4 CFU per spot) were spotted on the surfaces of MH agar (Oxoid, United Kingdom) plates containing different concentrations of tested compounds and a control plate. The MICs were the lowest concentrations that inhibit growth on the plates after incubation at 37 °C for 20 h.

Data set [2] has as its system Klebsiella pneumoniae ATCC 27736. Kind of data set: MIC by agar dilution. It counts as cell-based. Conditions: ATCC27736, 37 °C, 20 h, read-out: Minimum inhibitory concentration (MIC). The procedure:
as §1

The test system of data set [3] is Micrococcus spp. ATCC 10240. Kind of data set: MIC by agar dilution. It counts as cell-based. To be noted: ATCC10240, 37 °C, 20 h, read-out: Minimum inhibitory concentration (MIC). The protocol: as §1
The test system of data set [4] is Salmonella typhimurium ATCC 14028. Kind of data set: MIC by agar dilution. Format: cell-based. Conditions: Salmonella enterica, 37 °C, 20 h, read-out: Minimum inhibitory concentration (MIC). The procedure: as §1
Data set [5] concerns Staphylococcus aureus ATCC 6538. Description: MIC by agar dilution. It counts as cell-based. To be noted: ATCC6538, 37 °C, 20 h, read-out: Minimum inhibitory concentration (MIC). The protocol: as §1
The subject of data set [6] is Staphylococcus epidermidis ATCC 12228. Kind of data set: MIC by agar dilution. It counts as cell-based. To be noted: ATCC12228, 37 °C, 20 h, read-out: Minimum inhibitory concentration (MIC). The protocol:
as §1

The subject of data set [7] is Pseudomonas aeruginosae ATCC 47085. Kind of data set: MIC by agar dilution. It counts as cell-based, Pseudomonas aeruginosa. Conditions: ATCC47085, 37 °C, 20 h, read-out: Minimum inhibitory concentration (MIC). The protocol:
as §1

In data set [8] the test system is Aspergillus niger ATCC 16404. Description: MIC by agar dilution (antifungal). Format: cell-based. To be noted: for MIC: ATCC16404, read-out: Minimum inhibitory concentration (MIC). The protocol: as §1
The test system of data set [9] is Candida albicans ATCC 10231. Kind of data set: MIC by agar dilution (antifungal). It counts as cell-based. Conditions: for MIC: Candida albicans, ATCC10231, Candida albicans ATCC 10231, read-out: Minimum inhibitory concentration (MIC). The procedure:
as §1

The subject of the next data set is BxPC-3. Description: SRB cellular proliferation assay. It counts as cell-based, human. Conditions: Homo sapiens, BxPC-3 cells, mean ± SD (n = 3), read-out: IC50. The procedure:
(§2) The pancreatic human cancer cell lines BxPC-3 and Panc-1, the human hepatocellular carcinoma (HepG-2), and the normal immortalized pancreatic cell line HPDE, that were used in this study, were obtained from the American Type Culture Collection (Rockville, USA). Cell lines were cultured and treated with the tested compounds or dimethyl sulfoxide (DMSO) as previously described. Cells were cultivated in DMEM medium (Invitrogen, Carlsbad, CA, USA), supplemented with streptomycin, penicillin and fetal bovine serum (FCS) (Invitrogen, Carlsbad, CA, USA). The sulforhodamine B (SRB) assay was employed to assess the anti-proliferative effects of tested compounds on cancer cells. Cell lines were incubated and regularly treated with DMSO or increasing doses of tested compounds for 48 h. The cells were fixed with 10% trichloroacetic acid and stained with SRB fluorescent dye for 30 min. Then, the bounded SRB dye to cellular proteins was dissolved in 10 mM Tris base after washing excess dye with 1% acetic acid. The absorbance was measured at 510 nm in a reader (Biotek, Winooski, VT, USA).

In a further data set the test system is HepG-2. Description: SRB cellular proliferation assay. Format: cell-based, human. Conditions: Homo sapiens, HepG2, HepG-2 cells, mean ± SD (n = 3), read-out: IC50. The protocol:
as §2

The subject of a further data set is Panc-1. Kind of data set: SRB cellular proliferation assay. Format: cell-based, human. Conditions: Homo sapiens, Panc-1 cells, mean ± SD (n = 3), read-out: IC50. The protocol:
as §2

≈ marks a conversion by molar mass, not a printed value.

Regarding `CC1(C)S[C@@H]2[C@H](NC(=O)[C@H](N)c3ccc(O)cc3)C(=O)N2[C@H]1C(=O)O` [Amoxycillin, reference compound], the MIC in data set [1] was found to be 0.5 µg/mL (≈ 1.37 µM); in data set [2], 1 µg/mL (≈ 2.74 µM); in data set [3], 0.25 µg/mL (≈ 0.684 µM); in data set [4] it was 1 µg/mL (≈ 2.74 µM); in [5], 0.5 µg/mL (≈ 1.37 µM); in data set [6] it was 0.5 µg/mL (≈ 1.37 µM). In addition, in data set [7], the MIC is 2 µg/mL (≈ 5.47 µM).
Consider `CO/N=C(\C(=O)N[C@@H]1C(=O)N2C(C(=O)O)=C(COC(C)=O)CS[C@H]12)c1csc(N)n1` [Cefotaxime, reference compound], for which the MIC in [1] was 0.125 µg/mL (≈ 0.274 µM); in data set [2], 0.5 µg/mL (≈ 1.1 µM); in data set [3] it was 0.25 µg/mL (≈ 0.549 µM); in data set [4], 1 µg/mL (≈ 2.2 µM); in data set [5], 0.5 µg/mL (≈ 1.1 µM); in [6], 0.25 µg/mL (≈ 0.549 µM). Besides, the MIC in [7] came to 1 µg/mL (≈ 2.2 µM).
In turn, `COc1ccc(OC)c(/C=C2/N=C(c3ccccc3NS(=O)(=O)c3ccc(C)cc3)OC2=O)c1` [Compound 9c, (E)-N-(2-(4-(2,5-diMethoxybenzylidene)-5-oxo-4,5-dihydrooxazol-2-yl)phenyl)-4-methylbenzenesulfonamide] returned a melting point of 220 to 222 °C. Moreover, in data set [1], the MIC came to 4 µg/mL (≈ 8.36 µM). Besides, the MIC in data set [2] was determined as 8 µg/mL (≈ 16.7 µM). The MIC in data set [3] came out at 4 µg/mL (≈ 8.36 µM). In addition, the MIC in [4] was 8 µg/mL (≈ 16.7 µM). Moreover, in data set [5], the MIC came to 8 µg/mL (≈ 16.7 µM). The MIC in [6] worked out at 4 µg/mL (≈ 8.36 µM). Besides, the MIC in data set [7] came out at 16 µg/mL (≈ 33.4 µM). Also, the MIC in data set [8] was 8 µg/mL (≈ 16.7 µM). Moreover, in data set [9], the MIC came to 4 µg/mL (≈ 8.36 µM). The IC50 in the data set on BxPC-3 was determined as 21.5 ± 1.08 µg/mL (≈ 44.9 µM). In the data set with HepG-2, the IC50 was 19.1 ± 3.23 µg/mL (≈ 39.9 µM). Further, the IC50 in the data set on Panc-1 was 15.1 ± 4.13 µg/mL (≈ 31.6 µM).
For `COc1cc(/C=C2/N=C(c3ccccc3NS(=O)(=O)c3ccc(C)cc3)OC2=O)cc(OC)c1OC` [Compound 9d, (E)-4-Methyl-N-(2-(5-oxo-4-(3,4,5-trimethoxybenzylidene)-4,5-dihydrooxazol-2-yl)phenyl)be-nzenesulfonamide], the melting point is 230 to 232 °C. In data set [1], the MIC was found to be 4 µg/mL (≈ 7.87 µM). The MIC in data set [2] is 16 µg/mL (≈ 31.5 µM). Besides, in [3], the MIC is 2 µg/mL (≈ 3.93 µM). For the same compound, in data set [4], the MIC is 16 µg/mL (≈ 31.5 µM). The MIC in [5] is 4 µg/mL (≈ 7.87 µM). In addition, in data set [6], the MIC turned out to be 2 µg/mL (≈ 3.93 µM). Also, in data set [7], the MIC stood at 32 µg/mL (≈ 62.9 µM). The MIC in [8] is above 32 µg/mL. Further, the MIC in data set [9] was above 32 µg/mL. In addition, the half-inhibitory concentration (IC50) in the data set with BxPC-3 is 18.1 ± 3.56 µg/mL (≈ 35.5 µM). For the same compound, the concentration for half-maximal inhibition (IC50) in the data set with HepG-2 is 22.7 ± 2.3 µg/mL (≈ 44.7 µM). The IC50 in the data set on Panc-1 amounted to 25.3 ± 1.91 µg/mL (≈ 49.8 µM).
`Cc1ccc(S(=O)(=O)Nc2ccccc2C2=N/C(=C/c3ccc(OCc4ccccc4)cc3)C(=O)O2)cc1` [Compound 9g, (E)-N-(2-(4-(4-(Benzyloxy)benzylidene)-5-oxo-4,5-dihydrooxazol-2-yl)phenyl)-4-methylbenzenesulfonamide] registered a melting point of 235 to 237 °C. Besides, the MIC in data set [1] amounted to 2 µg/mL (≈ 3.81 µM). Further, the MIC in [2] amounted to 8 µg/mL (≈ 15.2 µM). Moreover, the MIC in data set [3] was 2 µg/mL (≈ 3.81 µM). In addition, the MIC in data set [4] is 16 µg/mL (≈ 30.5 µM). The MIC in [5] stood at 2 µg/mL (≈ 3.81 µM). The MIC in data set [6] turned out to be 2 µg/mL (≈ 3.81 µM). For the same compound, the MIC in [7] came to 16 µg/mL (≈ 30.5 µM). Besides, in [8], the MIC is above 32 µg/mL. Besides, in data set [9], the MIC is above 32 µg/mL. Further, the half-inhibitory concentration (IC50) in the data set on BxPC-3 was 25.7 ± 4.89 µg/mL (≈ 49 µM). Also, the concentration for half-maximal inhibition (IC50) in the data set with HepG-2 came out at 32.5 ± 1.45 µg/mL (≈ 62 µM). Besides, the concentration for half-maximal inhibition (IC50) with Panc-1 is 29.3 ± 4.23 µg/mL (≈ 55.8 µM).
In the case of `Cc1ccc(S(=O)(=O)Nc2ccccc2C2=N/C(=C/c3ccco3)C(=O)O2)cc1` [Compound 9i, (E)-N-(2-(4-(Furan-2-ylmethylene)-5-oxo-4,5-dihydrooxazol-2-yl)phenyl)-4-methylbenzenesulfonamide], the melting point is 191 to 193 °C. The MIC in data set [1] is above 32 µg/mL. The MIC in data set [2] was above 32 µg/mL. Further, the MIC in data set [3] was 2 µg/mL (≈ 4.9 µM). In [4], the MIC was above 32 µg/mL. Further, the MIC in data set [5] was 2 µg/mL (≈ 4.9 µM). The MIC in [6] was 2 µg/mL (≈ 4.9 µM). For the same compound, the MIC in data set [7] is above 32 µg/mL. The MIC in [8] was above 32 µg/mL. The MIC in [9] was above 32 µg/mL. For the same compound, in the data set on BxPC-3, the IC50 is 21.8 ± 2.98 µg/mL (≈ 53.4 µM). For the same compound, the half-inhibitory concentration (IC50) in the data set with HepG-2 was 27 ± 5.32 µg/mL (≈ 66.1 µM). Further, the 50% inhibitory concentration (IC50) in the data set on Panc-1 was 16.1 ± 1.82 µg/mL (≈ 39.5 µM).
As for `Cc1ccc(S(=O)(=O)Nc2ccccc2C2=N/C(=C/c3cccs3)C(=O)O2)cc1` [Compound 9j, (E)-4-Methyl-N-(2-(5-oxo-4-(thiophen-2-ylmethylene)-4,5-dihydrooxazol-2-yl)phenyl)benzenesulfonamide], the melting point lay in the range of 196 to 198 °C. In addition, the MIC in data set [1] was above 32 µg/mL. In addition, in data set [2], the MIC is above 32 µg/mL. Besides, the MIC in data set [3] worked out at 8 µg/mL (≈ 18.8 µM). Also, the MIC in data set [4] is above 32 µg/mL. Moreover, the MIC in data set [5] came out at 16 µg/mL (≈ 37.7 µM). The MIC in [6] is 8 µg/mL (≈ 18.8 µM). Further, in data set [7], the MIC is above 32 µg/mL. Also, the MIC in data set [8] was above 32 µg/mL. Also, the MIC in data set [9] was above 32 µg/mL. The IC50 with BxPC-3 is 21.4 ± 2.15 µg/mL (≈ 50.5 µM). The IC50 with HepG-2 amounted to 25.54 ± 0.144 µg/mL (≈ 60.2 µM). In addition, in the data set with Panc-1, the IC50 came to 16 ± 3.18 µg/mL (≈ 37.8 µM).
Consider `COc1cccc2c1C(=O)c1c(O)c3c(c(O)c1C2=O)C[C@@](O)(C(=O)CO)C[C@@H]3O[C@H]1C[C@H](N)[C@H](O)[C@H](C)O1` [Doxorubicin, reference compound], for which the values for the IC50 in the data set with BxPC-3, with HepG-2 and in the data set with Panc-1 were 7.31 ± 1.12 µg/mL (≈ 13.4 µM), 5.11 ± 0.98 µg/mL (≈ 9.4 µM) and 6.9 ± 0.93 µg/mL (≈ 12.7 µM), respectively.
Consider `C[C@@H]1[C@H](O)[C@@H](C)/C=C/C=C/CC/C=C/C=C/C=C/C=C/C(O[C@H]2O[C@H](C)[C@@H](O)[C@H](N)[C@@H]2O)CC2O[C@](O)(CC(O)C(O)CCC(O)CC(O)CC(O)CC(=O)O[C@H]1C)CC(O)C2C(=O)O` (stereo partly shown) [Nystatin, reference compound], for which the “Minimum inhibitory concentration (MIC)” value in [8] and in data set [9] (Candida albicans ATCC 10231) was 4 µg/mL (≈ 4.32 µM) throughout.
On to `Cc1cc(NS(=O)(=O)c2ccc(N)cc2)no1` [Sulphamethoxazole, reference compound], for which the MIC in data set [1] was determined as 1 µg/mL (≈ 3.95 µM); in data set [2], 2 µg/mL (≈ 7.9 µM); in data set [3], 1 µg/mL (≈ 3.95 µM); in [4], 2 µg/mL (≈ 7.9 µM); in data set [5], 2 µg/mL (≈ 7.9 µM); in data set [6], 2 µg/mL (≈ 7.9 µM). In addition, in data set [7], the MIC is 4 µg/mL (≈ 15.8 µM).
